Laboratory results as given in PubChem BioAssay AID588631 (NMMLSC, 2011).
Active and inactive are the calls of the source. No rule for the calls is given here.

Molecular target: Ras-related protein Rab7 wild type (dog)
Experiment: blockers of fluorescent GTP uptake by Rab7 – biochemical, dog Rab7, bead multiplex flow cytometry, round 2, SAR follow-up (AID 588631)
Conditions: Bead-based multiplex flow cytometry, at 100 µM (top of the series)

SMILES	percent response (remaining binding)
CC1(C)Cc2c(sc(NC(=S)Nc3ccccc3)c2C(=O)O)CO1	inactive
CC(C)(C)C1Cc2c(sc(NC(=S)NC(=O)c3ccccc3)c2C(=O)O)CO1 (stereo not given)	inactive

Same assay, conditions: Bead-based multiplex flow cytometry, fluorescent GTP binding

SMILES	EC50
CC1(C)Cc2c(sc(NC(=S)NC(=O)c3cccc(Br)c3)c2C(=O)O)CO1	3990 nM
CC1(C)Cc2c(sc(NC(=S)NC(=O)c3ccc(Br)cc3)c2C(=O)O)CO1	496 nM
CC1(C)Cc2c(sc(NC(=S)NC(=O)c3ccc(F)cc3)c2C(=O)O)CO1	95 nM
Cc1cccc(C(=O)NC(=S)Nc2sc3c(c2C(=O)O)CC(C)(C)OC3)c1	1160 nM
CC1(C)Cc2c(sc(NC(=S)NC(=O)c3cccs3)c2C(=O)O)CO1	25 nM
CC1(C)CCc2sc(NC(=S)NC(=O)c3ccccc3)c(C(=O)O)c2C1	46 nM
CC1(C)Cc2c(sc(NC(=S)NC(=O)c3ccco3)c2C(=O)O)CO1	74 nM
CC1(C)Cc2c(sc(NC(=S)NC(=O)c3ccccc3F)c2C(=O)O)CO1	318 nM
CC1(C)Cc2c(sc(NC(=S)NC(=O)C3CCCCC3)c2C(=O)O)CO1	809 nM
Cc1ccccc1C(=O)NC(=S)Nc1sc2c(c1C(=O)O)CC(C)(C)OC2	411 nM
CC1(C)Cc2c(sc(NC(=S)NC(=O)c3cccc(F)c3)c2C(=O)O)CO1	415 nM
CCC1(C)Cc2c(sc(NC(=S)NC(=O)c3ccccc3)c2C(=O)O)CO1 (stereo not given)	37 nM
Cc1ccc(C(=O)NC(=S)Nc2sc3c(c2C(=O)O)CC(C)(C)OC3)cc1	135 nM
O=C(NC(=S)Nc1sc2c(c1C(=O)O)CC1(CCCC1)OC2)c1ccccc1	35 nM
COc1ccccc1C(=O)NC(=S)Nc1sc2c(c1C(=O)O)CC(C)(C)OC2	1120 nM
CC1(C)Cc2c(sc(NC(=S)NC(=O)c3ccccc3Br)c2C(=O)O)CO1	1210 nM
COc1cccc(C(=O)NC(=S)Nc2sc3c(c2C(=O)O)CC(C)(C)OC3)c1	295 nM
COc1ccc(C(=O)NC(=S)Nc2sc3c(c2C(=O)O)CC(C)(C)OC3)cc1	221 nM
